Patent US20220296613A1, “FOOD-INDEPENDENT DOSING OF CV-10155 TO TREAT GABAA DISORDERS” (priority 2021, published 2022)
Read-outs that look alike come from different tables or passages of the source.

Legend:
[1] = tested on: models of depression, anxiety, seizure, and EEG; assay: Preclinical rodent models of seizure, anxiety, depression and EEG biomarker (overall); type: in vivo
[2] = target: α1β2γ2 GABAA receptors (Homo sapiens, UniProt P14867+P47870); assay: Synchropatch electrophysiology, potentiation of synaptic GABAA receptors; type: cell-based
[3] = in vivo; settings: beagle, dog, iv, 1 mg/kg
[4] = tested on: sleep states; assay: Sleep states by electroencephalogram (EEG) in rats; type: in vivo
Protocol: The effect of CV-10155 on various sleep states was analyzed in rats. Rats were given various doses of CV-10155, and sleep states were analyzed by electroencephalogram (EEG).
FIG. 17 is a hypnogram showing the percentage of time spent in different sleep states by rats given drug vehicle. Purple bars represent REM sleep; green bars represent non-REM sleep; blue bars represent quiet waking; and red bars represent active waking.
FIG. 18 is a hypnogram showing the percentage of time spent in different sleep states by rats given 1 mg/kg CV-10155. Purple bars represent REM sleep; green bars represent non-REM sleep; blue bars represent quiet waking; and red bars represent active waking.
FIG. 19 is a hypnogram showing the percentage of time spent in different sleep states by rats given 3 mg/kg CV-10155. Purple bars represent REM sleep; green bars represent non-REM sleep; blue bars represent quiet waking; and red bars represent active waking.
FIG. 20 is a hypnogram showing the percentage of time spent in different sleep states by rats given 6 mg/kg CV-10155. Purple bars represent REM sleep; green bars represent non-REM sleep; blue bars represent quiet waking; and red bars represent active waking.
FIG. 21 is a hypnogram showing the percentage of time spent in different sleep states by rats given 10 mg/kg CV-10155. […]

[5] = clinical; settings: human, in vivo
[6] = Pharmacokinetics of CV-10155 in preclinical rodent studies; settings: for AUC(0-inf) / Cmax / Tmax: rodent, in vivo, po
[7] = not given; remark: listed apart in the source
[8] = clinical; settings: human, in vivo, 60 mg
[9] = target: α4β3δ GABAA receptors (Homo sapiens, UniProt P28472+P48169); assay: Synchropatch electrophysiology, potentiation of extra synaptic GABAA receptors; type: cell-based
[10] = HV, 60 mg evening dosing (n = 12)
[11] = humans, 60 mg, day 7 MAD, morning dosing, fasted
[12] = humans, 60 mg, evening, fed state, N = 9
[13] = humans, 60 mg, morning, fasted state, N = 9
[14] = humans, evening, fed state, subject a, dosing day 1
[15] = humans, evening, fed state, subject l, dosing day 1
[16] = humans, evening, fed state, subject o, dosing day 3
[17] = humans, evening, fed state, subject p, dosing day 2
[18] = humans, evening, fed state, subject p, dosing day 7
[19] = humans, evening, fed state, subject p, dosing day 8
[20] = humans, evening, fed state, subject v, dosing day 4
[21] = 1 mg/kg (minimal effective dose), study including male and female subjects
[22] = 3 mg/kg, study including male and female subjects
[23] = 5 mg/kg, study including only male subjects
[24] = 10 mg/kg, study including male and female subjects

Sequence of α4β3δ GABAA receptors (P48169 36-554): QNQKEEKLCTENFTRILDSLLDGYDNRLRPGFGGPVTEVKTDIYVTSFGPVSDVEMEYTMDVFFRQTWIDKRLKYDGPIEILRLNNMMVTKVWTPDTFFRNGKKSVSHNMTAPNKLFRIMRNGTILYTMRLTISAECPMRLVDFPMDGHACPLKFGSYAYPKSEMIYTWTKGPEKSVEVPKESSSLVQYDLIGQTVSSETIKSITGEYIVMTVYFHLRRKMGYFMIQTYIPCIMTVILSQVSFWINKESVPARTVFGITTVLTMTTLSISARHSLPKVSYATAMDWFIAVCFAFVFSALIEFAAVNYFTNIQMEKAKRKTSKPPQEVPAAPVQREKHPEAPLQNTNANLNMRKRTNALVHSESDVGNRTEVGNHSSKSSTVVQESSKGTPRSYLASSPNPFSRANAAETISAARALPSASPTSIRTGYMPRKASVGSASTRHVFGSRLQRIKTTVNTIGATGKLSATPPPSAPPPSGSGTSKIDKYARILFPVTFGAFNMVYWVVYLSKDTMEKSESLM
Sequence of α4β3δ GABAA receptors (P28472 26-473): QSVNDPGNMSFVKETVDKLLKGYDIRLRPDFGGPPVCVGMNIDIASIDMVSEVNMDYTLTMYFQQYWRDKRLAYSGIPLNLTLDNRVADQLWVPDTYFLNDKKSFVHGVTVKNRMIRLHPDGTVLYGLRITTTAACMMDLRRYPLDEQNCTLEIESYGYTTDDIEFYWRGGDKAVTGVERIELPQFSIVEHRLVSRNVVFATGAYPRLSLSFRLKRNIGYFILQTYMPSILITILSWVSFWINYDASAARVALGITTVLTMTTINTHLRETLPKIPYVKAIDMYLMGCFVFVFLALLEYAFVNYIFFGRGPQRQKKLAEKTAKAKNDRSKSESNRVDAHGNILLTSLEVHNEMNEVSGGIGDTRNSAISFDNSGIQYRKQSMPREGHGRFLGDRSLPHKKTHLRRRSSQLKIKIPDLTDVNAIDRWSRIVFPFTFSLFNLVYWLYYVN
Sequence of α4β3δ GABAA receptors (O14764 25-452 partner): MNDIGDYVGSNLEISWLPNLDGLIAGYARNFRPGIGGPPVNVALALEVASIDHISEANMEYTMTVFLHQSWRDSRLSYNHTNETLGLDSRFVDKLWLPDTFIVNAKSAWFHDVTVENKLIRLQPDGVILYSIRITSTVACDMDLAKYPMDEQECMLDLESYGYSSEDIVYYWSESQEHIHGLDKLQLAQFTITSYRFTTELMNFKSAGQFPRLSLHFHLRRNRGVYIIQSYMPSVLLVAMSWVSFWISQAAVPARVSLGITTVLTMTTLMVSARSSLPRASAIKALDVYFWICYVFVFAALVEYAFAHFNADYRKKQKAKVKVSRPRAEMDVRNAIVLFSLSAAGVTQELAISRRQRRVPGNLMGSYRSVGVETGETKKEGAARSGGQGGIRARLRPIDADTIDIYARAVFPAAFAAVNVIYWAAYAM
Sequence of α1β2γ2 GABAA receptors (P14867 28-456): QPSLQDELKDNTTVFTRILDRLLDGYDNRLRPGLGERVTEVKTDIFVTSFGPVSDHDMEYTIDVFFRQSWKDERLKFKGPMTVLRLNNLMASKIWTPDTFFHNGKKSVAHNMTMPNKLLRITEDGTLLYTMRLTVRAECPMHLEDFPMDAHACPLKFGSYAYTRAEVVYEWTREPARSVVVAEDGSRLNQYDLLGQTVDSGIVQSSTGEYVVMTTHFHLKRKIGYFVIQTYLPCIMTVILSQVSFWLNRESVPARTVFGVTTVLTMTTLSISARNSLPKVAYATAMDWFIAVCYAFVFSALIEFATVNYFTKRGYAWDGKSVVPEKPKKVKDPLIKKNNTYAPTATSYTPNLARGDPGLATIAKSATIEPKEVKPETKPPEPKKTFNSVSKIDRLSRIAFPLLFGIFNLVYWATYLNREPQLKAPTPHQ
Sequence of α1β2γ2 GABAA receptors (P47870 25-512 limits assumed): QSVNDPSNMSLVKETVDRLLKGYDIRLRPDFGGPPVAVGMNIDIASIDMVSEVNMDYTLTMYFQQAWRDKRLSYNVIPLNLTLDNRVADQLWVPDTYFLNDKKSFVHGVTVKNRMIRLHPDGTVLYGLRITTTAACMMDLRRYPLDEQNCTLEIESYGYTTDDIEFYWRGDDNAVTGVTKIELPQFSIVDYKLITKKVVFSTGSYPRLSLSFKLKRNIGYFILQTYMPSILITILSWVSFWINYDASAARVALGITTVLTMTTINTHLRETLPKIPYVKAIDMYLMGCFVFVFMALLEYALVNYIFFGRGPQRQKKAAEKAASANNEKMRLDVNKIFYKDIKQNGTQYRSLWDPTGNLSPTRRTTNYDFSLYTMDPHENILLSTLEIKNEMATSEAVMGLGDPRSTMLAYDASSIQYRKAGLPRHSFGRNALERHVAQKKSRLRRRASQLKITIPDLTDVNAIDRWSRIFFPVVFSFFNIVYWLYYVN
Sequence of α1β2γ2 GABAA receptors (P18507 40-475 partner): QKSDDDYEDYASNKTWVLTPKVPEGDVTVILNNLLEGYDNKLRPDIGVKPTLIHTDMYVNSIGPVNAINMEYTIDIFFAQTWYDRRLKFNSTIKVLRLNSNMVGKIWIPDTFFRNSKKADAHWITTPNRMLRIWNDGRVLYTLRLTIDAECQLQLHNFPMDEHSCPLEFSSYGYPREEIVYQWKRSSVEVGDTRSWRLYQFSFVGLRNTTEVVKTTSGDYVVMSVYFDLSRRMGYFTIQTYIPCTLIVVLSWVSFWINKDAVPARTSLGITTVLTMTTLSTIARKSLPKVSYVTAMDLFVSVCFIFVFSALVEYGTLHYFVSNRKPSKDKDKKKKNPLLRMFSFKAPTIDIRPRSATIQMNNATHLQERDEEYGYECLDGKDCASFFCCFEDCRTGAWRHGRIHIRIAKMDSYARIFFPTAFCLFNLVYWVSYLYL

C[C@@]1(O)CC[C@@]2(C)[C@@H](CC[C@@H]3[C@@H]2CC[C@]2(C)[C@@H](C(=O)Cn4cc(C#N)cn4)CC[C@@H]32)C1 [CV-10155, 1-[2-[(3R,5S,8R,9S,10S,13S,14S,17S)-3-hydroxy-3,10,13-trimethyl-1,2,4,5,6,7,8,9,11,12,14,15,16,17-tetradecahydrocyclopenta[a]phenanthren-17-yl]-2-oxoethyl]pyrazole-4-carbonitrile]
dose from which robust efficacy was observed ([1]; most rodent models of seizure): ≥ 3 mg/kg
minimal effective dose (MED) ([1]; rodent models of seizure): 1 mg/kg
EC50 [2]: 207 nM
Emax ([2]; α1β2γ2 Synaptic receptors, Synchropatch electrophysiology, read-out: Emax - efficacy: % of potentiation): 586%
Vd [3]: 1.92 L/kg
clearance [3]: 2.17 mL/min/kg
half-life [3]: 13.9 h
Dizziness, AEs % of subjects [10]: 16.7%
Headache, AEs % of subjects [10]: 8.3%
Somnolence, AEs % of subjects [10]: 8.3%
Racc AUC (human, in vivo, 60 mg): 1.84
ratio of Cmax/trough on day 7 (humans, 60 mg daily in the evening in a fed state): 3.47
ratio of Cmax/trough on day 7 (humans, 60 mg daily in the morning in a fasted state): 6.09
tolerability profile compared to PRAX-114 and Sage-217 (humans, 60 mg dosed in the evening): favorable tolerability profile compared to PRAX-114 and one comparable to that of Sage-217
exposure levels in humans vs 30 mg doses of Sage-217 (humans, 60 mg doses): higher exposure levels
absorption, morning fasted vs evening fed (humans, 60 mg orally once per day for seven days): no significant difference in absorption
Cmin [11]: 41.5 ng/mL
Ratio (Cmax/Cmin) [11]: 6.07
AE Back pain (Musculoskeletal and connective tissue disorders), # [12]: 1
AE Bloating (Gastrointestinal disorders), # [12]: 1
AE Dizziness (Nervous system disorders), # [12]: 1
AE Headache (Nervous system disorders), # [12]: 2
AE Sleepiness (Nervous system disorders), # (humans, 60 mg, evening, fed state, N = 9, printed on two separate lines): 1
AE Dizziness (Nervous system disorders), # [13]: 1
AE Feeling sleepy (Nervous system disorders), # [13]: 1
AE Feeling tired (General disorders and administration site conditions), # [13]: 2
AE Headache (Nervous system disorders), # [13]: 2
AE Sleepiness (Nervous system disorders), # [13]: 9
AE Tiredness (General disorders and administration site conditions), # [13]: 3
Somnolence: duration [14]: 10.62 h
Somnolence: severity [14]: Mild
Headache: duration [15]: 13.25 h
Headache: onset from dose [15]: pre-dose
Headache: severity [15]: Mild
Abdominal distension: duration [16]: 06.50 h
Abdominal distension: severity [16]: Mild
Dizziness: duration [17]: 20.50 h
Dizziness: severity [17]: Mild
Dizziness: duration [18]: 13.00 h
Dizziness: severity [18]: Mild
Headache: duration [19]: 14.50 h
Headache: severity [19]: Moderate
Back pain: duration [20]: 39.25 h
Back pain: severity [20]: Mild
adverse effects that interfere with sleeping (humans, oral administration in the evening to fed subjects): does not produce adverse effects that interfere with sleeping
dose producing an increase in non-REM sleep ([4]; EEG, 1, 3, 6, 10 mg/kg tested): ≥ 3 mg/kg
target engagement (EEG) ([4]; within well-tolerated and efficacious dose ranges): dose-dependent target engagement
AUC(0-inf) ([5]; 135 mg): 3660 ng·h/mL
Cmax ([5]; 135 mg): 333 ng/mL
Tmax ([5]; 135 mg): 2.83 h
half-life ([5]; 135 mg): 25 h
Tmax ([5]; po): 2 to 4 h
half-life ([5]; po): 24 to 26 h
1/2 life [6, 21]: 3.66-6.82
Oral BA [6, 21]: 58.6-92.4
Oral BA ([6]; 2 mg/kg, study including only male subjects): 47.2
1/2 life [6, 22]: 2.84-4.96
Oral BA [6, 22]: 53-92.3
1/2 life [6, 23]: 4.19
Oral BA [6, 23]: 58.1
1/2 life [6, 24]: 3.23-4.80
Oral BA [6, 24]: 79.7-100
AUC(0-inf) ([6]; both, 1 mg/kg): 508 to 1300 ng·h/mL
Cmax ([6]; both, 1 mg/kg): 84.4 to 128 ng/mL
Tmax ([6]; both, 1 mg/kg): 1.5 to 2 h
AUC(0-inf) ([6]; both, 3 mg/kg): 1380 to 3900 ng·h/mL
Cmax ([6]; both, 3 mg/kg): 270 to 440 ng/mL
Tmax ([6]; both, 3 mg/kg): 1.25 to 2.5 h
AUC(0-inf) ([6]; both, 10 mg/kg): 6850 to 14700 ng·h/mL
Cmax ([6]; both, 10 mg/kg): 1160 ng/mL
Tmax ([6]; both, 10 mg/kg): 1.25 to 2.25 h
AUC(0-inf) ([6]; male, 2 mg/kg): 1320 ng·h/mL
Cmax ([6]; male, 2 mg/kg): 224 ng/mL
Tmax ([6]; male, 2 mg/kg): 1.7 h
AUC(0-inf) ([6]; male, 5 mg/kg): 2610 ng·h/mL
Cmax ([6]; male, 5 mg/kg): 499 ng/mL
Tmax ([6]; male, 5 mg/kg): 0.83 h
dose proportionality of AUC and Cmax ([7]; human, in vivo, po): dose-proportional increase
MTD, single ascending dose (SAD) ([7]; humans): ETX-155 135 mg SAD MTD
dose-limiting adverse event ([7]; humans): Ataxia
effect of food consumption on absorption ([7]; humans, oral 30 mg, fed vs fasted): no clinically meaningful effect
adverse events observed ([7]; humans, single oral dose, 200 mg): ataxia, tremor and tachycardia
inter-subject variability (CV) of AUC and Cmax ([7]; humans, single oral dose, 5-200 mg dose range): ≤ 30%
dose-limiting adverse events ([7]; humans, single oral dose, range of 5-135 mg): No dose-limiting adverse events were observed
most common adverse events ([7]; humans, single oral dose, mild to moderate, only observed at the highest doses): Dizziness and somnolence
AUC [8]: 2900 ng·h/mL
Cmax [8]: 253 ng/mL
Tmax [8]: 3 h
half-life [8]: 34.5 h
EC50 [9]: 165 nM
fold higher efficiency at extra synaptic vs. synaptic channels ([9]; α4β3δ vs α1β2γ2): 3 fold
